Laboratory results from US20240130368A1, “HERBICIDAL COMPOSITION” (Nippon Soda Co., Ltd., priority 2021, published 2024).
Where two headings read alike, the source gives them in different places.

What was measured:
Type in all cases: in vivo
Ipomoea hederacea [1] = assay: Test Example 6: foliar spraying treatment, herbicidal effect from above ground weight
Description: (§1) POA allylphenyl ether (4.1 parts by weight), POE-POP glycol (1 part by weight), POE sorbitan laurate (0.8 parts by weight), glycerin (2.6 parts by weight), dimethylformamide (65.9 parts by weight), N-methylpyrrolidone (5.1 parts by weight), cyclohexanone (15.4 parts by weight), and aromatic hydrocarbons (5.1 parts by weight) were mixed and dissolved to prepare an emulsion. The active ingredient (4 mg) of the composition of the present invention was dissolved in this emulsion (100 μL) to prepare a test emulsion. It should be noted that POA means “polyoxyalkylene”, POE means “polyoxyethylene”, and POP means “polyoxypropylene”.
(§2) A test emulsion was prepared in the same manner as in Test Example 4.
(§3) A 300 cm^2 pot was filled with soil, and seeds of Zea mays and Ipomoea hederacea were sown into the surface layer, and then grown in a greenhouse after being covered lightly with soil. When each plant grew to a plant height of 7 to 9 cm, the above test emulsion was diluted so that the amount of the active ingredient became a predetermined amount, and sprayed on the foliage with a small sprayer at a spray water volume of 250 L per hectare.
(§4) Test Examples 6-1 and 6-3 were evaluated in the same manner as in Test Example 4.
(§5) The expected values of the herbicidal effects in Test Example 6-2 were calculated using the following Colby's formula (Colby, S. R., Calculating synergistic and antagonistic responses of herbicide combinations, Weeds, 15, pp. 20-22 (1967)).
(§6) X indicates an herbicidal effect (%) by applying the compound (1) alone, Y and Z each indicate an herbicidal effect (%) by applying one of the two types of the compounds (II) alone, and E indicates an expected value (%) of the herbicidal effect by applying combinations of the compound (I) and two types of the compounds (II).
(§7) When the actual measured value (%) of the herbicidal effect by the combined application of the compound (I) and two types of the compounds (11) is greater than the expected value E, it can be regarded that the combined application of the compound (1) and two types of the compounds (II) has a synergistic effect.
The following grass species were used as grass species to be controlled [scientific names]. • Morning glory [Ipomoea hederacea]

Zea mays [2] = assay: Test Example 4: foliar spraying treatment, herbicidal effect from above ground weight (useful plant); conditions: 3 weeks after spraying
Description: as §1
(§8) A 300 cm^2 pot was filled with soil, and seeds of Zea mays, Setaria faberi, Sorghum halepense, Brachiaria platyphylla, Amaranthus palmeri, Senna obtusifolia and Ipomoea hederacea were sown into the surface layer, and then grown in a greenhouse after being covered lightly with soil. When each plant grew to a plant height of 7 to 11 cm, it was used for the test. The test emulsion was diluted so that the amount of the active ingredient became a predetermined amount, and sprayed on the foliage with a small sprayer at a spray water volume of 250 L per hectare.
(§9) For the evaluation of the herbicidal effects, the above ground weights of weeds in the untreated and treated areas were measured for each weed 3 weeks after spraying treatment, and the herbicidal effect (%) was calculated by the following calculation formula.
In addition, the expected values of the herbicidal effects were calculated from the herbicidal effects in a case where the compound (I) alone was applied and the herbicidal effects in a case where the compound (II) alone was applied by using the Colby's formula (Colby, S. R., Calculating synergistic and antagonistic responses of herbicide combinations, Weeds, 15, pp. 20-22 (1967)). […]

Setaria faberi = assay: Test Example 4: foliar spraying treatment, herbicidal effect from above ground weight; conditions: 3 weeks after spraying
Description: as §1, §8, §9
(§10) In addition, the expected values of the herbicidal effects were calculated from the herbicidal effects in a case where the compound (I) alone was applied and the herbicidal effects in a case where the compound (II) alone was applied by using the Colby's formula (Colby, S. R., Calculating synergistic and antagonistic responses of herbicide combinations, Weeds, 15, pp. 20-22 (1967)).
(§11) M indicates an herbicidal effect (%) in the application of the compound (1) alone, N indicates an herbicidal effect (%) in the application of the compound (II) alone, and E indicates an expected value (%) of the herbicidal effect in the combined application of the compound (I) and the compound (II). When the actual measured value (%) of the herbicidal effect in the combined application of the compound (I) and the compound (II) is greater than the expected value E, it can be regarded that the combined application of the compound (1) and the compound (II) has a synergistic effect.
(§12) Herbicidal effect (%)=[(above ground weight of weeds in untreated area)−(above ground weight of weeds in treated area)/(above ground weight of weeds in untreated area)]×100
(§13) The following grass species were used as grass species to be controlled [scientific names]. • Giant foxtail [Setaria faberi] • Johnson grass [Sorghum halepense] • Broadleaf signalgrass [Brachiaria platyphylla] • Palmer amaranth [Amaranthus palmeri] • Sicklepod [Senna obtusifolia] • Morning glory [Ipomoea hederacea]

Brachiaria platyphylla = assay: as above; conditions: 3 weeks after spraying
Description: as §1, §8, §9, §10, §11, §12, §13

Ipomoea hederacea [3] = assay: as above; conditions: 3 weeks after spraying
Description: as §1, §8, §9, §10, §11, §12, §13

Sorghum halepense = assay: as above; conditions: 3 weeks after spraying
Description: as §1, §8, §9, §10, §11, §12, §13

Amaranthus palmeri = assay: as above; conditions: 3 weeks after spraying
Description: as §1, §8, §9, §10, §11, §12, §13

Senna obtusifolia = assay: as above; conditions: 3 weeks after spraying
Description: as §1, §8, §9, §10, §11, §12, §13

Ambrosia artemisiifolia = assay: Test Example 1: seeds on filter paper moistened with chemical solution, herbicidal effect visually evaluated; conditions: visually evaluated 6 days after treatment; for pest or weed control at 12.5 ppm: amount of active ingredient 12.5 ppm
Description: As the compound (1), 1-methoxy-3-methyl-6-(1,1-dioxido-8-(trifluoromethyl)thiochroman-5-yl)-7-oxa-3,4-diazabicyclo[4.1.0]hept-4-en-2-one (Compound (I-3)) was used.
(§14) The compound (I) or compound (II) was prepared into a 5% emulsion using DMF (containing 1.5% Tween) and diluted with water to a prescribed dosage concentration. Commercially available preparations were dissolved in water and adjusted to a prescribed dosage concentration.
(§15) Seeds were soaked in 0.6% sodium hypochlorite for a predetermined time for surface sterilization and washed with water for use (seed disinfection). Seeds of Ambrosia artemisiifolia were used for the test.
(§16) Filter paper was placed on a cup (diameter: 10 cm, height: 4 cm) with a lid and moistened with 8 ml of chemical solution, and seeds were sown thereon, and after covering with a lid, grown in a constant temperature room.
(§17) The herbicidal effects were visually evaluated, 6 days after the treatment, as the herbicidal effect (%), by comparing with a state of an untreated group using a total of 21 scores of withering index from 0 to 20 (0: mortality rate equivalent to that of the untreated group, 20: mortality rate of 100%).
as §10
(§18) M indicates an herbicidal effect (%) in the application of the compound (I) alone, N indicates an herbicidal effect (%) in the application of the compound (II) alone, and E indicates an expected value (%) of the herbicidal effect in the combined application of the compound (T) and the compound (TT). When the actual measured value (%) of the herbicidal effect in the combined application of the compound (I) and the compound (II) is greater than the expected value E, it can be regarded that the combined application of the compound (I) and the compound (II) has a synergistic effect.

Zea mays [4] = assay: Test Example 6: foliar spraying treatment, herbicidal effect from above ground weight (useful plant)
Description: as §1, §2, §3, §4, §5, §6, §7
The following plants were used as useful plants [scientific names]. • Corn for animal feed [Zea mays]

Abutilon theophrasti = assay: Test Example 3: seeds on filter paper moistened with chemical solution, herbicidal effect visually evaluated; conditions: 6 days after the treatment
Description: as §14, §15, §16, §17, §10, §18
The herbicidal effects were evaluated by the same method as in Test Example 1 except that the seeds used in the test were changed from Ambrosia artemisiifolia to Abutilon theophrasti.

Avena fatua = assay: Test Example 5: spraying on the soil surface, herbicidal effect from above ground weight; conditions: Flufenacet alone, 250 gai/ha, sprayed on the soil surface, seven weeks after spraying
Description: as §1, §9, §12, §2
(§19) A 300 cm^2 pot was filled with soil, and seeds of Triticum aestivum, multidrug-resistant Alopecurus myosuroides, Lolium multiflorum and Avena fatua were sown into the surface layer, and covered with soil to a thickness of 0.5 to 1 cm. The above test emulsion was diluted so that the amount of the active ingredient became a predetermined amount, and sprayed on the soil surface at a spray water volume of 250 L per hectare, followed by growth in an outdoor environment.
(§20) Seven weeks after spraying, the evaluation was carried out in the same manner as in Test Example 4, except that the above ground weights of weeds in the untreated and treated areas were measured for each weed.
(§21) The following grass species were used as grass species to be controlled [scientific names]. • Blackgrass * [Alopecurus myosuroides] • Italian ryegrass [Lolium multiflorum] • Wild oat [Avena fatua]

Lolium multiflorum = assay: as above; conditions: Flufenacet alone, 250 gai/ha, sprayed on the soil surface, seven weeks after spraying
Description: as §1, §9, §12, §2, §19, §20, §21

[5] = tested on: multidrug-resistant Alopecurus myosuroides; assay: as above; conditions: Flufenacet alone, 250 gai/ha; sprayed on the soil surface; seven weeks after spraying; Alopecurus myosuroides multidrug-resistant strain
Description: as §1, §9, §12, §2, §19, §20, §21

Triticum aestivum = assay: Test Example 5: spraying on the soil surface, herbicidal effect from above ground weight (useful plant); conditions: Flufenacet alone, 250 gai/ha, sprayed on the soil surface, seven weeks after spraying
Description: as §1, §9, §12, §2, §19, §20
The following plants were used as useful plants [scientific names]. • Wheat [Triticum aestivum]

Digitaria ciliaris = assay: Test Example 2: seeds on filter paper moistened with chemical solution, herbicidal effect visually evaluated; conditions: Pinoxaden alone, 0.2 ppm, 6 days after the treatment
[6] = Ambrosia artemisiifolia, 144 h, applied alone, amount of active ingredient 0.8 ppm, read-out: Herbicidal effect (%)
[7] = Ambrosia artemisiifolia, 144 h, applied alone, read-out: Herbicidal effect (%)

CCOCN(C(=O)CCl)c1c(C)cccc1CC [Acetochlor]
Actual measured value of herbicidal effect (Ipomoea hederacea [1]; Acetochlor alone, 2,000 gai/ha): 20% | Actual measured value of herbicidal effect (Zea mays [2]; Acetochlor alone, 1,000 gai/ha): 0% | Actual measured value of herbicidal effect (Setaria faberi; Acetochlor alone, 1,000 gai/ha): 70% | Actual measured value of herbicidal effect (Brachiaria platyphylla; Acetochlor alone, 1,000 gai/ha): 60% | Actual measured value of herbicidal effect (Ipomoea hederacea [3]; Acetochlor alone, 1,000 gai/ha): 20% | Actual measured value of herbicidal effect (Sorghum halepense; Acetochlor alone, 1,000 gai/ha): 60% | Actual measured value of herbicidal effect (Amaranthus palmeri; Acetochlor alone, 1,000 gai/ha): 50% | Actual measured value of herbicidal effect (Senna obtusifolia; Acetochlor alone, 1,000 gai/ha): 20% | pest or weed control at 0.8 ppm (Ambrosia artemisiifolia; [6]): 40% | Actual measured value of herbicidal effect (Zea mays [4]; Acetochlor alone, 2,000 gai/ha): 0%

CCNc1nc(Cl)nc(NC(C)C)n1 [Atrazine]
Actual measured value of herbicidal effect (Zea mays [2]; Atrazine alone, 500 gai/ha): 0% | Actual measured value of herbicidal effect (Setaria faberi; Atrazine alone, 500 gai/ha): 100% | Actual measured value of herbicidal effect (Brachiaria platyphylla; Atrazine alone, 500 gai/ha): 0% | Actual measured value of herbicidal effect (Ipomoea hederacea [3]; Atrazine alone, 500 gai/ha): 100% | Actual measured value of herbicidal effect (Sorghum halepense; Atrazine alone, 500 gai/ha): 0% | Actual measured value of herbicidal effect (Amaranthus palmeri; Atrazine alone, 500 gai/ha): 100% | Actual measured value of herbicidal effect (Senna obtusifolia; Atrazine alone, 500 gai/ha): 30% | pest or weed control at 200 ppm (Ambrosia artemisiifolia; Ambrosia artemisiifolia, 144 h, applied alone, amount of active ingredient 200 ppm): 10%

O=C(O)c1nc(Cl)ccc1Cl [Clopyralid]
Actual measured value of herbicidal effect (Ipomoea hederacea [1]; Clopyralid alone, 125 gai/ha): 30% | pest or weed control at 12.5 ppm (Ambrosia artemisiifolia; [7]): 90% | Actual measured value of herbicidal effect (Zea mays [4]; Clopyralid alone, 125 gai/ha): 0%

COc1nn(C(=O)[N-]S(=O)(=O)c2ccccc2OC(F)(F)F)c(=O)n1C.[Na+] [Flucarbazone-Sodium, reference compound]
Herbicidal effect (Abutilon theophrasti; Flucarbazone-Sodium alone, 3.1 ppm): 20%

CC(C)N(C(=O)COc1nnc(C(F)(F)F)s1)c1ccc(F)cc1 [Flufenacet, reference compound]
pest or weed control at 0.2 ppm (Ambrosia artemisiifolia; Ambrosia artemisiifolia, 144 h, compound applied alone, amount of active ingredient 0.2 ppm, read-out: Herbicidal effect (%)): 20% | Actual measured value of herbicidal effect (Avena fatua): 60% | Actual measured value of herbicidal effect (Lolium multiflorum): 70% | Actual measured value of herbicidal effect [5]: 40% | Actual measured value of herbicidal effect (Triticum aestivum): 30%

CCc1cc(C)cc(CC)c1-c1c(OC(=O)C(C)(C)C)n2n(c1=O)CCOCC2 [Pinoxaden, reference compound]
Herbicidal effect (Digitaria ciliaris): 10%

Cn1nc(C(F)(F)F)c(CS(=O)(=O)C2=NOC(C)(C)C2)c1OC(F)F [Pyroxasulfone]
Actual measured value of herbicidal effect (Ipomoea hederacea [1]; Pyroxasulfone alone, 94 gai/ha): 60% | pest or weed control at 0.2 ppm (Ambrosia artemisiifolia; Ambrosia artemisiifolia, 144 h, applied alone, amount of active ingredient 0.2 ppm, read-out: Herbicidal effect (%)): 30% | Actual measured value of herbicidal effect (Zea mays [4]; Pyroxasulfone alone, 94 gai/ha): 0%

CC/C(=N\OC/C=C/Cl)C1=C(O)CC(C2CCOCC2)CC1=O (stereo not shown) [Tepraloxydim]
pest or weed control at 3.1 ppm (Ambrosia artemisiifolia; Ambrosia artemisiifolia, 144 h, read-out: Herbicidal effect (%), compound applied alone, amount of active ingredient 3.1 ppm): 10%

CCNc1nc(Cl)nc(NC(C)(C)C)n1 [Terbuthylazine]
pest or weed control at 50 ppm (Ambrosia artemisiifolia; Ambrosia artemisiifolia, 144 h, applied alone, amount of active ingredient 50 ppm, read-out: Herbicidal effect (%)): 0%

CN1C[C@H](c2cccc(C(F)(F)F)c2)[C@@H](C(=O)Nc2ccccc2F)C1=O [Tetflupyrolimet]
Herbicidal effect (%) (Ambrosia artemisiifolia; compound applied alone, amount of active ingredient 3.1 ppm): 70%

COC(=O)c1csc(C)c1S(=O)(=O)NC(=O)n1nc(OC)n(C)c1=O [Thiencarbazone-methyl]
Herbicidal effect (%) (Ambrosia artemisiifolia; applied alone, amount of active ingredient 0.8 ppm): 30%

COC(=O)c1sccc1S(=O)(=O)NC(=O)Nc1nc(C)nc(OC)n1 [Thifensulfuron-methyl, reference compound]
Herbicidal effect (Abutilon theophrasti; Thifensulfuron-methyl alone, 0.8 ppm): 10%

Cc1c(C(=O)c2cnn(C)c2O)ccc(S(C)(=O)=O)c1C1=NOCC1 [Topramezone]
Herbicidal effect (%) (Ambrosia artemisiifolia; compound applied alone, amount of active ingredient 0.2 ppm): 40%

CC(C)N(C(=O)SCC(Cl)=C(Cl)Cl)C(C)C [Tri-allate]
pest or weed control at 12.5 ppm (Ambrosia artemisiifolia; [7]): 20%

CCCN(CCC)c1c([N+](=O)[O-])cc(C(F)(F)F)cc1[N+](=O)[O-] [Trifluralin]
pest or weed control at 0.8 ppm (Ambrosia artemisiifolia; [6]): 10%

S-metolachlor
Herbicidal effect (%) (Ambrosia artemisiifolia; compound applied alone, amount of active ingredient 0.8 ppm): 20%
